Laboratory results published in ChEMBL document CHEMBL3856204, “Chiral 6-aryl-furo[2,3-d]pyrimidin-4-amines as EGFR inhibitors” (Eur J Med Chem, 2016).

Molecular target: Epidermal growth factor receptor (Homo sapiens, UniProt P00533)
Test: Inhibition of recombinant human GST-tagged EGFR cytoplasmic domain (668 to 1210 residues) expressed in baculovirus by Z'-LYTE assay

Epidermal growth factor receptor, sequence (P00533 whole entry, the tested form may be a part): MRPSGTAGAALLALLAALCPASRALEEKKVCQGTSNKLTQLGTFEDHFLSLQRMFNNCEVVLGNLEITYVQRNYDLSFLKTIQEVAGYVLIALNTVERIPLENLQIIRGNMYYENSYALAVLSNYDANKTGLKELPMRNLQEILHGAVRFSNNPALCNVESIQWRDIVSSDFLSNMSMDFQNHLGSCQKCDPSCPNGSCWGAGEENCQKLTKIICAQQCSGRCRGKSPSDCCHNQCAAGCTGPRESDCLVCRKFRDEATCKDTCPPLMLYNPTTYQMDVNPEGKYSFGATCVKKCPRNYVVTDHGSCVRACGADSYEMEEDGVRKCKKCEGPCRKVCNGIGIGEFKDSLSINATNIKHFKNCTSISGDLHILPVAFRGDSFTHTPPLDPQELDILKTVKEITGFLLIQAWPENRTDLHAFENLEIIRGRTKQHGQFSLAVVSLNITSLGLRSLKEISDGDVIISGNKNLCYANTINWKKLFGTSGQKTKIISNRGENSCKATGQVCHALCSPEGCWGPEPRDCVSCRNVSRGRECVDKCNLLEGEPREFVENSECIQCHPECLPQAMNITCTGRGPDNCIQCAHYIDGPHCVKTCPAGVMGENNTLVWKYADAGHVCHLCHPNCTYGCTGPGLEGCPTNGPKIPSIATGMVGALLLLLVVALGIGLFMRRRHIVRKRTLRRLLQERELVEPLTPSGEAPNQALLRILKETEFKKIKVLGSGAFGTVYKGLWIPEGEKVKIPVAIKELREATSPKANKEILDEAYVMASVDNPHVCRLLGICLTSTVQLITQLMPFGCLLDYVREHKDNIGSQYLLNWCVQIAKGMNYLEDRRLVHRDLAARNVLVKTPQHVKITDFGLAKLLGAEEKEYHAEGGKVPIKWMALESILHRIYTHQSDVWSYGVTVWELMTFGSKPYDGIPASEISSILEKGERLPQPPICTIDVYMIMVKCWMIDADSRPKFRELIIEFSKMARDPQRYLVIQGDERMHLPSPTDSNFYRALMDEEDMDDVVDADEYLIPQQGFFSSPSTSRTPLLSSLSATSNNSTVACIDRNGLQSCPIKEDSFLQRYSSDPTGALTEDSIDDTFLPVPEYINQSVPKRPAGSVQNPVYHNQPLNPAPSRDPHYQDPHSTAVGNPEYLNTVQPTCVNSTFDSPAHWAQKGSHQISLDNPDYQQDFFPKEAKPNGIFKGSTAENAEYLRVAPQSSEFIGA

IC50 [nM]	Structure (SMILES)
5.3	COc1ccc(-c2cc3c(N[C@H](C)c4ccccc4)ncnc3o2)cc1
56	C[C@@H](Nc1ncnc2oc(-c3ccc(Br)cc3)cc12)c1ccccc1
> 100	COc1ccc(-c2cc3c(N[C@@H](C)CO)ncnc3o2)cc1
24	COc1ccc(-c2cc3c(N[C@H](C)c4ccccc4F)ncnc3o2)cc1
27	COc1ccc(-c2cc3c(N[C@H](C)c4ccc(F)cc4)ncnc3o2)cc1
4.6	C[C@@H](Nc1ncnc2oc(-c3cccc(O)c3)cc12)c1ccccc1
1.5	C[C@@H](Nc1ncnc2oc(-c3ccc(O)cc3)cc12)c1ccccc1
74	COc1ccc(-c2cc3c(NCc4ccccc4)ncnc3o2)cc1
13	C[C@@H](Nc1ncnc2oc(-c3ccc(F)cc3)cc12)c1ccccc1
4	COc1ccccc1-c1cc2c(N[C@H](C)c3ccccc3)ncnc2o1
7	COc1cccc(-c2cc3c(N[C@H](C)c4ccccc4)ncnc3o2)c1
44	C[C@@H](Nc1ncnc2oc(-c3ccc(C#N)cc3)cc12)c1ccccc1
4	COc1ccc(-c2cc3c(N[C@H](CCO)c4ccccc4)ncnc3o2)cc1
1.1	C[C@@H](Nc1ncnc2oc(-c3ccc(NCCN4CCOCC4)cc3)cc12)c1ccccc1
93	c1ccc(CNc2ncnc3oc(-c4ccccc4)cc23)cc1
22	CC[C@@H](Nc1ncnc2oc(-c3ccc(OC)cc3)cc12)c1ccccc1
29	C=Cc1ccc(-c2cc3c(N[C@H](C)c4ccccc4)ncnc3o2)cc1
24	COc1ccc(-c2cc3c(N[C@H](C)c4cccc(F)c4)ncnc3o2)cc1
> 1000	COc1ccc(-c2cc3c(N[C@@H](C)c4ccccc4)ncnc3o2)cc1
> 100	COc1ccc(-c2cc3c(N[C@H](C)C4CCCCC4)ncnc3o2)cc1
11	C[C@@H](Nc1ncnc2oc(-c3ccccc3)cc12)c1ccccc1
28	COC[C@@H](Nc1ncnc2oc(-c3ccccc3)cc12)c1ccccc1
22	COc1ccc(-c2cc3c(NC(CC(N)=O)c4ccccc4)ncnc3o2)cc1 (racemic)
